Experimental findings from patent US8802660B2, “De novo synthesis of glucocorticoids in the epidermis and its uses and applications” (New York University, priority 2007, dated 2014) are described below.

For assay [1], the system named is primary human keratinocytes. The assay is described as follows: ELISA assay for cortisol in medium of cultured keratinocytes. It is filed as cell-based. The conditions noted are these: for induction of cortisol levels / cortisol production / effect on cortisol production (in words): keratinocytes; for induction of cortisol levels / cortisol production: after 24 hours, ACTH 0.1 μM, progesterone 1 μM; for effect on cortisol production (in words): 24 hours, metyrapone 200 μM. Here is the method:
Normal human epidermal keratinocytes were initiated using 3T3 feeder layers as previously described (Randolph and Simon (1993) J. Biol. Chem. 268(13):9198-9205) and frozen in liquid nitrogen until use. Once thawed, the keratinocytes were grown without feeder cells in defined serum-free keratinocyte medium supplemented with epidermal growth factor and bovine pituitary extract (keratinocyte-SFM, GIBCO, Carlsbad, Calif.). Cells were expanded through two 1:4 passages before they were grown to 80% confluency. Cells were washed several times with 1×PBS before they were incubated with basal keratinocyte medium (GIBCO) custom made without hydrocortisone and thyroid hormone.
(§1) Cells were cultured to 80% of confluency as described above in Example 1(C). 200 μl of the medium was collected at 0, 6, 12, 24, and 48 hours after the switch to basal medium, and cortisol production was measured using ELISA kit (R & D Systems, Minneapolis, Minn.) following commercial protocol.
(§2) To further confirm that keratinocytes produce glucocorticoids de novo, medium was collected from cultured cells grown in the minimal medium in the absence of any alternative GC source as described in Example 1(C). Cortisol production was measured after 0, 6, 12, 24, and 48 hours using the ELISA assay described in Example 1(E). To confirm the production in tissue, the production of cortisol released from skin in explant cultures was measured. As shown in FIG. 3(B), 11.1 ng/ml of cortisol was released by the skin.
Cortisol production was measured after 24 hours using the ELISA assay described in Example 1(E). […] The addition of 1 μM of progesterone as a substrate for glucocorticoid synthesis lead to a 2.5 fold induction in cortisol production in both cells and skin (FIG. 7B). The addition of 200 μM metyrapone (Sigma) decreased endogenous levels of cortisol production (FIG. 7B).
(§3) To determine if injury-related molecules affect cortisol synthesis, IL-1 or IGF-1 was added to keratinocytes cultured as described in Example 1(C) or skin explants. IL-1 is a primary injury-response pro-inflammatory signal whereas IGF-1 is known to modulate glucocorticoid metabolism (Rappolee et al. (1988) Science 241:708-12). ACTH was used as a positive control. Cortisol levels were measured 24 hours post-treatment using the ELISA assay described in Example 1(E). […] In contract, IGF-1 inhibited cortisol production in both treated cells and tissue (FIG. 8(A)).
Background: ELISA stands for enzyme-linked immunosorbent assay.

The next assay has as its system CYP11B1. Description: RT-PCR of CYP11B1 expression in treated keratinocytes. The class given is cell-based, human. Here is the method:
RNA isolation and purification was performed using Triazol (Invitrogen, Carlsbad, Calif.) extraction and subsequent Qiagen RNeasy Kit column purification (Qiagen, Alameda, Calif.). Reverse transcription and amplification were performed using primers CYP11B1 fw GCTAGACATAGGGGCTCC (SEQ ID no. 1), CYP11B1-rev AGGTGTTTCAGCACATGG (SEQ ID no. 2)and Access RT-PCR Kit (Promega, Madison, Wis.) as follows: (a) reverse transcription—1 cycle at 48° C. for 45 minutes; (b) AMV RT inactivation and RNA/cDNA primer denaturation—1 cycle at 94° C. for 2 minutes; (c) second strand cDNA synthesis and PCR amplification—35 cycles: denaturation for 30 seconds, annealing at 51° C. for 1 minute and extension at 68° C. for 2 minutes; and (d) final extension—1 cycle at 68° C. for 7 minutes. Samples were separated by electrophoresis on 2% agarose gels containing 0.5 μg/ml of ethidium bromide and visualized under UV light.
To elucidate the possible mechanism of regulation involved in these observations, the expression of CYP11B1 was measured using RT-PCR as described in Example 1(G). The expression levels of CYP11B1 corresponded to the cortisol production. IL-1 induced the expression of CYP11B1 similar to ACTH, whereas IGF-1 inhibited its expression (FIG. 8(B)).

The subject of another assay is skin explant cultures. The assay is described as follows: ELISA assay for cortisol released from skin explant cultures. The class given is cell-based, human. The conditions noted are these: for induction of cortisol levels / cortisol production: after 24 hours, ACTH 0.1 μM, progesterone 1 μM; for effect on cortisol production (in words): 24 hours, metyrapone 200 μM. Here is the method: as §1, §2
A further experiment was performed where prior to measurement both the keratinocytes and the skin explant cultures were stimulated with 0.1 μM of ACTH. Cortisol production was measured after 24 hours using the ELISA assay described in Example 1(E). […] The addition of 1 μM of progesterone as a substrate for glucocorticoid synthesis lead to a 2.5 fold induction in cortisol production in both cells and skin (FIG. 7B). The addition of 200 μM metyrapone (Sigma) decreased endogenous levels of cortisol production (FIG. 7B).
as §3

Assay [2] has as its system acute wounds in human skin specimens. The assay is described as follows: Epithelialization in acute wounding model of human skin (histology). The conditions noted are these: topical; air-liquid interface for 6 days; metyrapone 200 μM. The source says:
Human skin specimens were obtained from discarded tissue in reduction mammoplasty following approved Hospital for Special Surgery protocol (#25121). Preparation of tissue with acute wounds was done as previously described (Tomic-Canic et al. (2007) Wound Repair Regen. 15(1):71-9); Stojadinovic et al. (2005) Am. J. Pathol. 167(1):59-69). The adipose tissue was removed, and circular templates of skin were generated using a 6 mm biopsy punch. A 3 mm biopsy punch was used to create an acute wound. The skin specimens were maintained at the air-liquid interface with DMEM (BioWhittaker, Walkersville, Md.) with antibiotics-antimycotics, and fetal bovine serum (FBS) (Gemini Bio-Products, Woodland, Calif.) for 0, 4, 48, and 96 hours in the presence or absence of 1 μM dexamethasone (Sigma, St. Louis, Mo.). Acute wounds were fixed in 4% paraformaldehyde (Sigma) at room temperature overnight, dehydrated with ethanol, cleared in chloroform, and embedded in paraffin.
The effect of glucocorticoids on epithelialization was tested using the acute wounding model described in Example 1(A). The wounded skin was maintained at the air-liquid interface for 6 days. Wounds were maintained in the presence or absence of clobetasol propionate (routinely used by dermatologists in the treatment of inflammatory skin disorders). Healing rates was determined by histology. […]

The subject of another assay is β-catenin. Description: Immunohistochemistry of phosphorylated β-catenin in chronic wound biopsies (diabetic foot ulcers). Also on record: species or system human. The settings on record: topically applied to chronic wound biopsies. How it is done: Chronic wound tissue was obtained from discarded tissue of biopsies of consenting patients having surgical debridement using approved Columbia University protocol.
Slides were counterstained with hematoxylin. […] Sections were analyzed using a Carl Zeiss microscope. Digital images were taken with Adobe TWAIN—32 program.
It has been previously reported that β-catenin and c-myc participate in inhibition of wound healing and contribute to the impairment of healing in chronic wounds. […] To test if endogenous glucocorticoid participates in β-catenin activation in patients with chronic wounds, metyrapone was topically applied to chronic wound biopsies from patients with diabetic foot ulcers (as described in Example 1(A)). The effects were evaluated by measuring phosphorylation and intracellular translocation of β-catenin by immunohistochemistry as described in Example 1(B), except using an antibody targeting phosphorylated (activated) form of β-catenin (Cell Signaling Technology, Danvers, Mass.). […] As also shown in FIG. 12, this effect can be reversed by the addition of an exogenous glucocorticoid.

Another assay has as its system glucocorticoid receptor. Description: Immunohistochemistry of phosphorylated (hormone-activated) GR in acute wound sections. Also on record: species or system human. The settings on record: treated acute wound samples.
The next assay concerns c-myc. The assay is described as follows: Northern Blot and Western Blot of c-myc in keratinocytes and tissue. It is filed as cell-based, human. How it is done:
Keratinocytes were grown to 80% confluency, switched to the basal media for 24 hours, and incubated with 1 mM dexamethasone (Sigma) for 24 and 48 hours. Cells were harvested by trypsinization and cytoplasmic and nuclear fractions were obtained using Nuclear Extract Kit (Active Motif, Carlsbad, Calif.) following commercial protocol. 15 μg of each fraction was separated on a 10% SDS-PAGE gel. The proteins were then transferred to a nitrocellulose membrane (Protran®, Bioscience, Dassel, Germany) using the semi-dry transfer system (BioRad, Hercules, Calif.). Ponceau S was used to check the efficiency of the transfer. […] The membrane was washed 3 times for 5 minutes in TTBS and then incubated at 4° C. overnight with GR antibody (1:500) (Affinity Bioreagents) followed with horseradish […] (HRP) conjugated to anti-rabbit secondary antibody (1:1000) (Santa Cruz Biotech, Santa Cruz, Calif.). Immune complexes were visualized using Super Signal West Pico Chemiluminescent substrate (Pierce, Rockford, Ill.). Immunoblot was exposed on x-ray film (HyBlot CL, Denville, N.J.) according to manufacturer's instruction.
It was also found by Northern Blot analysis using acute wound tissue that c-myc was induced at 96 hours post-wounding (FIG. 11(B)).
Using Western Blot analysis, it was shown that protein levels of c-myc were induced by exogenous glucocorticoid and blocked by metyrapone (FIG. 11(C)).

Source text for glucocorticoid receptor: Human skin specimens were obtained from discarded tissue in reduction mammoplasty following approved Hospital for Special Surgery protocol (#25121). […] The adipose tissue was removed, and circular templates of skin were generated using a 6 mm biopsy punch. A 3 mm biopsy punch was used to create an acute wound. […] Acute wounds were fixed in 4% paraformaldehyde (Sigma) at room temperature overnight, dehydrated with ethanol, cleared in chloroform, and embedded in paraffin.
Six μm tissue sections were serially cut on a microtome (HM 315, Carl Zeiss, New York, N.Y.) and mounted on slides. Sections were dewaxed in xylene, re-hydrated and washed with 1× phosphate buffered saline (PBS). For antigen retrieval, paraffin sections were heated in a 95° C. water bath in Target Retrieval Solution (DAKO Corporation, Carpinteria, Calif.). Histological slides were treated with 3% H2O2/30% MeOH for 30 minutes, rinsed with water, and blocked with normal rabbit serum for 30 minutes (Vectastatin Kit Elite ABC, Vectorlabs, Burlingame, Calif.). […] Sections were analyzed using a Carl Zeiss microscope. […]

In the case of “adrenocorticotropic hormone (SYSMEHFRWGKPVGKKRRPVKVYPNGAEDESAEAFPLEF; Corticotropin; UniProt P01189 138-176, looked up) [ACTH, stimulates synthesis of glucocorticoid]”, the “induction of cortisol levels” value came out at 2.7 fold in assay [1] (keratinocytes in culture, 0.1mM of ACTH) and 2.01 fold in the assay on skin explant cultures (skin explants, 0.1 μM of ACTH). The “induction of cortisol levels / cortisol production” value in assay [1] turned out to be 2.7 fold; in the assay on skin explant cultures (skin explants), 2.0 fold. Moreover, the “expression of CYP11B1 (RT-PCR)” value with CYP11B1 is recorded as “induced”.

Consider `CCC(=O)O[C@]1(C(=O)CCl)[C@@H](C)C[C@H]2[C@@H]3CCC4=CC(=O)C=C[C@]4(C)[C@@]3(F)[C@@H](O)C[C@@]21C` [clobetasol propionate], for which, in assay [2], the “epithelialization / wound closure” value was “completely inhibited epithelialization”.

Turning to `CC(=O)[C@H]1CC[C@H]2[C@@H]3CCC4=CC(=O)CC[C@]4(C)[C@H]3CC[C@]12C` [progesterone], the “induction of cortisol levels / cortisol production” value (in assay [1]; with skin explant cultures (skin explants)) was 2.5 fold throughout.

Turning to “IGF-1: known to modulate glucocorticoid metabolism”, the “effect on cortisol production (in words)” value (in assay [1]; in the assay on skin explant cultures (skin explants)) was “inhibited” each time. Further, in the assay on CYP11B1, the “expression of CYP11B1 (RT-PCR)” value was “inhibited”.

On to `[Ca+2].[Cl-].[Cl-]` [CaCl2], for which the “effect on cortisol production in the skin” value in the assay with skin explant cultures (increased CaCl2 levels) is listed as “decrease”.

For the compound `CC(C)(C(=O)c1cccnc1)c1cccnc1` [metyrapone], the “β-catenin phosphorylation and nuclearization” value in the assay with β-catenin is on record as “abolished”. Also, the “effect on cortisol production (in words)” value (in assay [1]; in the assay with skin explant cultures (skin explants)) was “decreased” in each case. Moreover, in assay [2], the “epithelialization / wound closure” value was “complete wound closure”. For the same compound, in the assay on glucocorticoid receptor, the “hormone-activated GR in the nucleus (anti-phospho-Ser211 staining)” value is recorded as “absence of GR in the nucleus”. The “protein levels of c-myc (Western Blot)” value with c-myc was “blocked”.
